# Like-named read-outs stand apart in the source and are kept apart here.
# Assays:
# CHO-K1 cells = assay: Toxicity in RRA (loss of luciferase signal); settings: toxicity = loss of signal (<0.75 fold increase)
# Procedure: The beta amyloid inhibitory activity of the compounds of the present invention was determined using the Repressor Release Assay (RRA).
# “Fold Increase” refers to the amount of luciferase activity (measured in relative light units) over diluent control. “SEM” refers to the standard error of the mean for fold increase.
# beta amyloid production = assay: Repressor Release Assay (RRA); assay type: cell-based; settings: for fold induction at 20 µg/mL: Conc 20 μg/ml; for fold induction at 20 µg/mL / fold induction at 10 µg/mL: read-out: APPI Fold Increase
# Outline: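 CHO-K1 cells transiently co-transfected with pRSVO-luc and an APP-lacI construct, replated, then treated in duplicate for 36-48 h at 37 °C, 5% CO2. Compounds diluted in 25 mM Hepes, with Hepes/1% DMSO as diluent control. Luciferase read-out in relative light units; toxicity scored 1 non-toxic, 0 toxic.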
# [1] = luciferase activity over diluent control
# [2] = Conc 10 μg/ml, luciferase activity over diluent control
SMILES,(%)APPI Toxicity (CHO-K1 cells; Conc 20 μg/ml),melting point [°C],fold induction at 20 µg/mL (beta amyloid production; [1]),(%)APPI Toxicity (CHO-K1 cells; Conc 10 μg/ml),fold induction at 10 µg/mL (beta amyloid production; [2]),also measured
"CC(C)[C@@H](CO)NS(=O)(=O)c1ccc(Br)cc1 [Example 275, 4-Bromo-N-[(1S)-1-(hydroxymethyl)-2-methylpropyl]benzenesulfonamide]",1 (1=non-toxic),89 to 94,2,,,
"O=S(=O)(N[C@H](CO)C1CCCCC1)c1ccc(Cl)cc1 [Example 272, 4-Chloro-N-[(1S)-1-cyclohexyl-2-hydroxyethyl]benzenesulfonamide]",1 (1=non-toxic),115 to 118,2.3,,,
"CC(C)[C@@H](CO)NS(=O)(=O)c1ccc(Cl)cc1 [Example 274, 4-Chloro-N-[(1S)-1-(hydroxymethyl)-2-methylpropyl]benzenesulfonamide]",1 (1=non-toxic),83 to 85,2.1,,,
"CC(C)(C)[C@@H](CO)NS(=O)(=O)c1ccc(Cl)cc1 [Example 277, 4-Chloro-N-[(1S)-1-(hydroxymethyl)-2,2-dimethylpropyl]benzenesulfonamide]",1 (1=non-toxic),128 to 130,1.5,,,
"O=S(=O)(N[C@H](CO)c1ccccc1)c1ccc(Cl)cc1 [Example 273, 4-Chloro-N-[(1S)-2-hydroxy-1-phenylethyl]benzenesulfonamide]",1 (1=non-toxic),127 to 128,1.5,,,
"CC[C@H](C)[C@@H](CO)NS(=O)(=O)c1ccc(I)cc1 [Example 276, 4-Iodo-N-[(1S,2S)-1-(hydroxymethyl)-2-methylbutyl]benzenesulfonamide]",1 (1=non-toxic),118 to 120,2,,,
"CC[C@H](C)[C@@H](CO)NS(=O)(=O)c1ccc(Cl)c(N)c1 [Example 14, 3-Amino-4-chloro-N-[(1S,2S)-1-(hydroxymethyl)-2-methylbutyl]benzenesulfonamide]",1 (1=non-toxic),89 to 92,1.9,,,
"CC#CC(O)[C@@H](NS(=O)(=O)c1ccc(Br)cc1)[C@@H](C)CC (stereo partly drawn) [Example 162, 4-bromo-N-{(1S)-2-hydroxy-1-[(1S)-1-methylpropyl]-3-pentynyl}benzenesulfonamide]",,,,1 (1=non-toxic),1.63,
"CC[C@H](C)[C@H](NS(=O)(=O)c1ccccc1F)C(O)(c1ccccc1)c1ccccc1 [Example 263, 2-fluoro-N-{(1S,2 S)-1-[hydroxy (diphenyl)methyl]-2-methylbutyl}benzenesulfonamide]",,,,1 (1=non-toxic),1.57,
"CC[C@H](C)[C@H](NS(=O)(=O)c1ccc(F)cc1)C(O)c1ccc(OC)cc1 (stereo partly drawn) [Example 139, 4-fluoro-N-{(1S,2S)-1-[hydroxy(4-methoxyphenyl)methyl]-2-methylbutyl}benzenesulfonamide]",,,,1 (1=non-toxic),2.12,
"O=S(=O)(NC1(CO)CCc2ccccc21)c1ccc(Br)cc1 (stereo not shown) [Example 122, 4-bromo-N-[1-(hydroxymethyl)-2,3-dihydro-1H-inden-1-yl]benzenesulfonamide]",1 (1=non-toxic),,1.5,,,
"CC[C@H](C)[C@H](NS(=O)(=O)c1ccccc1F)C(O)(c1ccc(Cl)cc1)c1ccc(Cl)cc1 [Example 267, N-{(1S,2S)-1-[bis(4-chlorophenyl)(hydroxy)methyl]-2-methylbutyl}-2-fluoro benzenesulfonamide]",,,,1 (1=non-toxic),,"APPI Fold Increase (beta amyloid production; [2]): 1.59 fold; APPI % of Example #98 (beta amyloid production; Conc 10 μg/ml, relative to Example 98): 58.97%"
"CC(C)[C@@](C)(CO)NS(=O)(=O)c1ccc(Br)cc1 [Example 34, 4-bromo-N-[(1 S)-1-(hydroxymethyl)-1,2-dimethylpropyl]benzenesulfonamide]",1 (1=non-toxic),,4.2,,,
"CCCCCC(O)[C@@H](NS(=O)(=O)c1cccc(Cl)c1)[C@@H](C)CC (stereo partly drawn) [Example 188, 3-chloro-N-{(1S)-2-hydroxy-1-[(1S)-1-methylpropyl]heptyl}benzenesulfonamide]",,,,1 (1=non-toxic),3.54,
"CC[C@H](C)[C@@H](CO)NS(=O)(=O)c1ccc(F)cc1Cl [Example 5, 2-chloro-4-fluoro-N-[(1S,2S)-1-(hydroxymethyl)-2-methylbutyl]benzenesulfonamide]",1 (1=non-toxic),,2.5,,,
"CC[C@H](C)[C@@H](CO)N(Cc1ccc(OC)c(OC)c1)S(=O)(=O)c1ccc(Cl)cc1 [Example 45, 4-chloro-N-(3,4-dimethoxybenzyl)-N-[(1S,2S)-1-(hydroxymethyl)-2-methylbutyl]benzenesulfonamide]",1 (1=non-toxic),,1.5,,,
"CCCC(CO)NS(=O)(=O)c1cccc(Cl)c1 (stereo not shown) [Example 105, 3-chloro-N-[1-(hydroxymethyl)butyl]benzenesulfonamide]",,,,1 (1=non-toxic),1.54,
"CC[C@H](C)[C@H](NS(=O)(=O)c1ccc(F)cc1)C(O)(c1ccc(N(C)C)cc1)c1ccc(N(C)C)cc1 [Example 247, N-{(1S,2S)-1-[bis[4-(dimethylamino)phenyl](hydroxy)methyl]-2-methylbutyl}-4-fluorobenzenesulfonamide]",,,,1 (1=non-toxic),1.54,
"CC(c1ccccc1)C(CO)NS(=O)(=O)c1ccc(Cl)cc1 (stereo not shown) [Example 38, 4-chloro-N-[1-(hydroxymethyl)-2-phenylpropyl]benzenesulfonamide]",1 (1=non-toxic),,3.3,,,
"CCCCC[C@H](C)[C@@H](CO)NS(=O)(=O)c1ccc(Br)cc1 [Example 80, 4-bromo-N-[(1S,2S)-1-(hydroxymethyl)-2-methylheptyl]benzenesulfonamide]",,,,,,"(%)APPI Toxicity (CHO-K1 cells; Conc 20 μg/ml, 1=non-toxic, 0=toxic): 1 (1=non-toxic); fold induction at 20 µg/mL (beta amyloid production; luciferase activity (RLU) over diluent control): 3.9"
"CC[C@H](C)[C@H](NS(=O)(=O)c1ccc(F)cc1)C(O)C=C(C)C (stereo partly drawn) [Example 137, 4-fluoro-N-{(1S)-2-hydroxy-4-methyl 1-[(1S)-1-methylpropyl]-3-pentenyl}benzenesulfonamide]",,,,1 (1=non-toxic),1.61,
"CCCCCCC(O)[C@@H](NS(=O)(=O)c1ccc(Cl)cc1)[C@@H](C)CC (stereo partly drawn) [Example 167, 4-chloro-N-{(1S)-2-hydroxy-1-[(1S)-1-methylpropyl]octyl}benzenesulfonamide]",,,,1 (1=non-toxic),9.66,
